This is an account of results in US20160367537A1, “COMPOSITIONS AND METHODS FOR THE TREATMENT AND MANAGEMENT OF STEATOSIS IN HUMAN LIVER” (WAKE FOREST UNIVERSITY HEALTH SCIENCES, priority 2013, published 2016).

Series [1] in a line: Absorption after oral intake. The note with it: given in the diet.
A short description of another series: Stability in the diet. The format is physicochemical. The note with it: diet admixture.
For series [2], the system named is lysosomal acid lipase deficient (LAL−/−) mice. Description: Mouse model of lysosomal acid lipase deficiency, PRD125 as diet admixture. The format is in vivo. As for the experimental part:
In the present example, hepatic lipid concentrations and content in a lysosomal acid lipase deficient (LAL^−/−) mouse model were determined in the presence and absence of selective SOAT2 inhibitors. The data are for male lysosomal acid lipase deficient mice on a FVB background. The mice were fed a chow diet for 21 days. During the subsequent 52 or 53 days, 5 mice were fed the chow diet without drug and 3 of 5 to be studied were fed a chow diet supplemented with PRD125 at a dose of 10 mg/kg/day. Animals were ex-sanguinated at 52 days and the blood plasma was collected in EDTA and frozen in liquid nitrogen. The livers, small intestine, and spleen were flushed with saline and rinsed, then also snap frozen in liquid nitrogen. All organs were weighed, and after freezing, approximately 25 mg of tissue was extracted in chloroform methanol, 2:1, for subsequent lipid determinations. Free and total cholesterol was measured enzymatically and esterified cholesterol was determined by difference. Aliquots of the terminal plasma were used for measurement of tissue enzymes.
Mice were studied starting at 21 days of age and studied for 52 to 53 days. Treatment with PRD125 was at 10 mg/kg/day and the compound was given as a diet admixture.

The next series concerns the target T1, SOAT2 (Homo sapiens, UniProt O75908).
T1 sequence (O75908 1-522): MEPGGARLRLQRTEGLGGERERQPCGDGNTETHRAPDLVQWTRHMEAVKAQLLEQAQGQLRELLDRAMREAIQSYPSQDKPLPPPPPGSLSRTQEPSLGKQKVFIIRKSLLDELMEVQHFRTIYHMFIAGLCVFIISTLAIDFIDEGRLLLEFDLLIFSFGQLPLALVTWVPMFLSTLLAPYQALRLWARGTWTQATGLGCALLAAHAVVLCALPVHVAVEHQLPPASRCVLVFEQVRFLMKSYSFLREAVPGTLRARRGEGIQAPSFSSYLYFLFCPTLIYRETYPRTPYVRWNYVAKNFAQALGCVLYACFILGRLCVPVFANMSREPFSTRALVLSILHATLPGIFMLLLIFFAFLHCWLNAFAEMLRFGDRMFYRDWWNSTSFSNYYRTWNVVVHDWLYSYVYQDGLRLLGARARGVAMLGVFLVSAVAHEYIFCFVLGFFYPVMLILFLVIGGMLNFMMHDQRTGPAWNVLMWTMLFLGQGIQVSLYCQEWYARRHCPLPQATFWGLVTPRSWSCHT
Kind of series: Specificity for SOAT2 compared to SOAT1.

Turning to `Cc1ccccc1[C@@H]1OCC2(C)C3C[C@H](OC(=O)c4ccc(C#N)cc4)[C@@]4(C)Oc5cc(-c6cccnc6)oc(=O)c5[C@H](O)C4[C@@]3(C)CC[C@@H]2O1` (some centres unmarked) [PRD125], the absorption result in series [1] is “easily absorbed”. Further, the “stability in the diet” value in the series “Stability in the diet” is on record as “stable”. The “decrease of liver cholesterol content versus untreated mice” value in series [2] (LAL−/− mice, 10 mg/kg/day as diet admixture) was found to be 65%. The serum enzyme levels entry in series [2] (male LAL−/− mice, 10 mg/kg/day as diet admixture, terminal plasma) was “reduced”. Also, the liver cholesterol esters result in series [2] (male LAL−/− mice, FVB background, 10 mg/kg/day as diet admixture, from 21 to 52 or 53 days of age) is reported as “significantly reduced”. The oral effectiveness result in series [2] (oral, does not need booster injections) is given as “effective orally”. In addition, the “cholesterol content of liver” value in series [2] (treated LAL−/− mice, 10 mg/kg/day as diet admixture (untreated approximately 146 mg/liver)) is given as roughly 39 mg/liver. Further, the “specificity to SOAT2 compared to SOAT1” value at SOAT2 was “over 5000 fold”.
